These results are taken from patent US12319655B2, “RAF kinase inhibitors and methods of use thereof” (Deciphera Pharmaceuticals, LLC, priority 2021, dated 2025).

The target of experiment [1] is B-Raf (V600E) (SEQ. ID NO: 4) kinase (Homo sapiens (Human), UniProt P15056, V600E). Description: Biochemical Assay for B-Raf (V600E) (2). To be noted: Table J, BRAF V600E, biochemical assay (2); read-out: BRAF VE (2). As to the method:
Biochemical Assay for B-Raf (V600E) (2)
Activity of B-Raf (V600E) (SEQ. ID NO: 4) kinase was determined spectroscopically using a coupled pyruvate kinase/lactate dehydrogenase assay that continuously monitors the ATP hydrolysis-dependent oxidation of NADH (e.g., Schindler et al., Science, 2000, 289, 1938-1942). Assays were conducted in 384-well plates (25 μL final volume) using 0.5 nM B-Raf (deCode), 1.5 units pyruvate kinase, 2.1 units lactate dehydrogenase, 1 mM phosphoenol pyruvate, 0.7 mM NADH, 100 nM MEK (SignalChem), and 1 mM ATP in assay buffer (100 mM Tris, pH 7.5, 15 mM MgCl2, 0.5 mM DTT, 0.1% octyl-glucoside, 0.002% (w/v) BSA, and 0.002% Triton X-100). Inhibition of B-Raf (V600E) was measured by adding serial diluted test compound (final assay concentration of 1% DMSO). A decrease in absorption at 340 nm was monitored hourly for 4 h at 30° C. on a multi-mode microplate reader (BioTek). The reaction rate was calculated using the 3 to 4 h time frame. The reaction rate at each concentration of compound was converted to percent inhibition using controls (i.e., reaction with no test compound and reaction with a known inhibitor) and IC50 values were calculated by fitting a four-parameter sigmoidal curve to the data using Prism (GraphPad software).

The next experiment concerns A375 cells. Description: A375 Cell Proliferation Assay (2). Type of experiment: cell-based. To be noted: Homo sapiens, A-375. As to the method:
A375 Cell Proliferation Assay (2)
A375 cells (catalog (#CRL-1619) are obtained from the American Type Culture Collect (ATTC, Manassas, VA). Briefly, cells were grown in DMEM High Glucose supplemented with 10% characterized fetal bovine serum (Invitrogen, Carlsbad, CA) and 1% Penicillin/Streptomycin/L-Glutamine at 37° C., 5% CO2, and 95% humidity. Cells are expanded until reaching 70-95% confluency at which point they are sub-cultured or harvested for assay use. Using the Beckman Coulter Echo 650, a serial dilution of test compound is dispensed into a 384-well black clear bottom plate in triplicate. Six hundred twenty-five cells are added per well in 50 μL complete growth medium in the 384-well plate. Plates are incubated for 67-72 h at 37° C., 5% CO2, and 95% humidity. At the end of the incubation, 10 μL of a 440 μM solution of resazurin (Sigma, St. Louis, MO) in PBS is added to each well of the plate and plates are incubated for an additional 3-6 h at 37° C., 5% CO2, and 95% humidity. Plates are read on a Synergy2 or equivalent reader (Biotek, Winooski VT) using an excitation of 540 nm and an emission of 600 nm. Data is analyzed using Prism software (GraphPad, San Diego, CA) to calculate IC50 values.

Experiment [2] addresses B-Raf kinase (SEQ. ID NO: 2) (Homo sapiens (Human), UniProt P15056). Description: Biochemical Assay for B-Raf (2). As to conditions: Table J, biochemical assay (2); read-out: BRAF (2). Here is the method:
Biochemical Assay for B-Raf (2)
Activity of B-Raf kinase (SEQ. ID NO: 2) was determined spectroscopically using a coupled pyruvate kinase/lactate dehydrogenase assay that continuously monitors the ATP hydrolysis-dependent oxidation of NADH (e.g., Schindler et al., Science, 2000, 289, 1938-1942). Assays were conducted in 384-well plates (25 μL final volume) using 2 nM B-Raf (Sigma), 1.5 units pyruvate kinase, 2.1 units lactate dehydrogenase, 1 mM phosphoenol pyruvate, 0.7 mM NADH, 50 nM MEK (SignalChem), and 1 mM ATP in assay buffer (100 mM Tris, pH 7.5, 15 mM MgCl2, 0.5 mM DTT, 0.1% octyl-glucoside, 0.002% (w/v) BSA, and 0.002% Triton X-100). Inhibition of B-Raf was measured by adding serial diluted test compound (final assay concentration of 1% DMSO). A decrease in absorption at 340 nm was monitored hourly for 4 h at 30° C. on a multi-mode microplate reader (BioTek). The reaction rate was calculated using the 2 to 3 h time frame. The reaction rate at each concentration of compound was converted to percent inhibition using controls (i.e., reaction with no test compound and reaction with a known inhibitor) and IC50 values were calculated by fitting a four-parameter sigmoidal curve to the data using Prism (GraphPad software).

The test system of the next experiment is WM3928 cells. Description: WM3928 Cell Proliferation Assay (2). Type of experiment: cell-based. Here is the method:
WM3928 Cell Proliferation Assay (2)
WM3928 cells (#WM3928-01-0001) are obtained from Rockland Immunochemicals Inc (Gilbertsville, PA). Briefly, cells were grown in MCDB 153 medium (Sigma, #M7403, St. Louis, MO) supplemented with 20% Leibovitz's L-15 (ThermoFisher #11415-064, Waltham, MA), 2% heat inactivated fetal bovine serum (ThermoFisher, #A3840001, Waltham, MA), 5 μg/mL Insulin (Bovine Pancreas) (Sigma, #10516, St. Louis, MO), 1.68 mM Calcium Chloride (Sigma, #C-34006, St. Louis, MO) and 1% Penicillin/Streptomycin/L-Glutamine (ThermoFisher #10378016, Waltham, MA) at 37° C., 5% CO2, and 95% humidity. Cells are expanded until reaching 70-95% confluency at which point they are sub-cultured or harvested for assay use. Using the Beckman Coulter Echo 650, a serial dilution of test compound is dispensed into a 384-well black clear bottom plate in triplicate. Seven hundred fifty cells are added per well in 50 μL complete growth medium in the 384-well plate. Plates are incubated for 67-72 hours at 37° C., 5% CO2, and 95% humidity. At the end of the incubation, 10 μL of a 440 μM solution of resazurin (Sigma, #199303, St. Louis, MO) in PBS is added to each well of the plate and plates are incubated for an additional 3-6 hours at 37° C., 5% CO2, and 95% humidity. Plates are read on a Synergy2 or equivalent reader (Biotek, Winooski VT) using an excitation of 540 nm and an emission of 600 nm. Data is analyzed using Prism software (GraphPad, San Diego, CA) to calculate IC50 values.

Chain of B-Raf kinase (SEQ. ID NO: 2) (P15056 416-766): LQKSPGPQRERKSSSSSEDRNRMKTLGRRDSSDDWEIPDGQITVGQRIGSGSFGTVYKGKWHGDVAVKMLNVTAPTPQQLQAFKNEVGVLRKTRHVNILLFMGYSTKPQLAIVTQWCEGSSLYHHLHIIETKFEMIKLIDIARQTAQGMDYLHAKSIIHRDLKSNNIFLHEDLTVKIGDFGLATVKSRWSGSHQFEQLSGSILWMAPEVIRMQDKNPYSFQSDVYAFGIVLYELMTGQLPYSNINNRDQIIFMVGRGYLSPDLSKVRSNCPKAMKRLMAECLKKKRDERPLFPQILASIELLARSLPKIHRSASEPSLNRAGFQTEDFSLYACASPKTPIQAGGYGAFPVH
Chain of B-Raf (V600E) (SEQ. ID NO: 4) kinase (P15056 416-766 V600E): as the sequence (P15056 416-766) above, with V185E counted along it

Turning to `CNC(=O)c1cc(-c2cc(-c3cc(F)cc(NC(=O)c4ccnc(C(C)(C)F)c4)c3F)ccn2)ccn1` [Example 475], the IC50 (in experiment [1]; in the experiment with A375 cells; in experiment [2]; with WM3928 cells) was 1000 to 10000 nM each time.

On to `Cc1ccc(NC(=O)c2ccnc(C(C)(C)F)c2)cc1-c1ccnc(-c2ccnc(C(=O)NCCN(C)C)c2)c1` [Example 453], for which the IC50 was not above 100 nM in experiment [1], 100 to 500 nM in the experiment on A375 cells, not above 100 nM in experiment [2] and 100 to 500 nM in the experiment with WM3928 cells.

Regarding `Cc1ccc(NC(=O)c2ccnc(C3(C#N)CC3)c2)cc1-c1ccnc(-c2ccnc(NC(=O)C3CC3)c2)c1` [Example 457], the IC50 (in experiment [1]; with A375 cells; in experiment [2]; in the experiment with WM3928 cells) was not above 100 nM each time.

With `CNC(=O)c1cc(-c2cc(-c3cc(NC(=O)c4ccnc(C(C)(C)F)c4)ccc3C)ncn2)ccn1` [Example 474], the IC50 (in experiment [1]; in the experiment on A375 cells; in experiment [2]; in the experiment on WM3928 cells) was not above 100 nM in each case.

For the compound `CNC(=O)c1cc(-c2cc(-c3cc(NC(=O)c4ccnc(C(C)(C)F)c4)ccc3C)c(F)cn2)ccn1` [Example 469], the IC50 in experiment [1] was not above 100 nM; in the experiment on A375 cells, 100 to 500 nM; in experiment [2], not above 100 nM; with WM3928 cells, 100 to 500 nM.

`CNC(=O)c1cc(-c2cc(-c3cc(NC(=O)c4ccnc(C(C)(C)F)c4)ccc3C)cc(C)n2)ccn1` [Example 470]: the IC50 was not above 100 nM in experiment [1], 100 to 500 nM with A375 cells, 100 to 500 nM in experiment [2] and not above 100 nM in the experiment with WM3928 cells.

As to `Cc1ccc(NC(=O)c2ccnc(C(C)(C)F)c2)cc1-c1ccnc(-c2ccnc(C(=O)NCC#N)c2)c1` [Example 451], the IC50 (in experiment [1]; with A375 cells; in experiment [2]; in the experiment on WM3928 cells) was not above 100 nM each time.

On to `Cc1ccc(NC(=O)c2ccnc(C(C)(C)F)c2)cc1-c1ccnc(-c2ccnc(C(N)=O)c2)c1` [Example 476], for which the IC50 (in experiment [1]; in the experiment with A375 cells; in experiment [2]; in the experiment on WM3928 cells) was not above 100 nM each time.

For the compound `Cc1ncc(NC(=O)c2ccnc(C(C)C)c2)cc1-c1ccnc(-c2ccnc(NC(=O)C3CC3)c2)c1` [Example 468], the IC50 is not above 100 nM in experiment [1], 100 to 500 nM with A375 cells, not above 100 nM in experiment [2] and not above 100 nM in the experiment with WM3928 cells.

Consider `Cc1ccc(NC(=O)c2ccnc(C(C)(C)F)c2)cc1-c1ccnc(-c2ccnc(C(=O)NCCO)c2)c1` [Example 448], for which the IC50 in experiment [1] was not above 100 nM; in the experiment on A375 cells it was 100 to 500 nM; in experiment [2], 100 to 500 nM; in the experiment on WM3928 cells, not above 100 nM.

Take `CNC(=O)c1cc(-c2cc(-c3cc(NC(=O)c4ccnc(C5CC5)c4)ccc3C)ccn2)ccn1` [Example 460]: the IC50 was not above 100 nM in experiment [1], 100 to 500 nM with A375 cells, not above 100 nM in experiment [2] and not above 100 nM in the experiment with WM3928 cells.

Regarding `Cc1ccc(NC(=O)c2ccnc(C(C)C)c2)cc1-c1ccnc(-c2ccnc(NC(=O)C3CC3)c2)c1` [Example 467], the IC50 (in experiment [1]; with A375 cells; in experiment [2]; in the experiment with WM3928 cells) was not above 100 nM each time.

As to `Cc1ccc(NC(=O)c2ccnc(C(C)(C)F)c2)cc1-c1ccnc(-c2ccnc(C#N)c2)c1` [Example 447], the IC50 is 100 to 500 nM in experiment [1], 1000 to 10000 nM with A375 cells, 100 to 500 nM in experiment [2] and 500 to 1000 nM in the experiment on WM3928 cells.

Consider `CNC(=O)c1cc(-c2cncc(-c3cc(NC(=O)c4ccnc(C(C)(F)F)c4)ccc3C)c2)ccn1` [Example 440], for which the IC50 in experiment [1] is not above 100 nM; with A375 cells, 100 to 500 nM; in experiment [2], not above 100 nM; in the experiment with WM3928 cells, not above 100 nM.

Consider `Cc1ncc(NC(=O)c2ccnc(C3(C#N)CC3)c2)cc1-c1ccnc(-c2ccnc(NC(=O)C3CC3)c2)c1` [Example 461], for which the IC50 (in experiment [1]; in the experiment on A375 cells; in experiment [2]; with WM3928 cells) was not above 100 nM throughout.

With `CNC(=O)c1cc(-c2cc(-c3cc(NC(=O)c4ccnc(C(C)(C)F)c4)ccn3)ccn2)ccn1` [Example 481], the IC50 (in experiment [1]; with A375 cells; in experiment [2]; with WM3928 cells) was 1000 to 10000 nM throughout.

Consider `Cc1ccc(NC(=O)c2ccnc(C(C)(C)C#N)c2)cc1-c1ccnc(-c2ccnc(NC(=O)C3CC3)c2)c1` [Example 456], for which the IC50 (in experiment [1]; in the experiment with A375 cells; in experiment [2]; in the experiment with WM3928 cells) was not above 100 nM in each case.

`Cc1ncc(NC(=O)c2ccnc(C(C)(F)F)c2)cc1-c1ccnc(-c2ccnc(NC(=O)C3CC3)c2)c1` [Example 466]: the IC50 in experiment [1] is not above 100 nM; in the experiment with A375 cells it was 100 to 500 nM; in experiment [2], not above 100 nM; in the experiment on WM3928 cells, not above 100 nM.

Regarding `Cc1cc(-c2cc(NC(=O)c3ccnc(C(C)(C)F)c3)ccc2C)cc(-c2ccnc(C(N)=O)c2)n1` [Example 484], the IC50 (in experiment [1]; in the experiment with A375 cells; in experiment [2]; in the experiment on WM3928 cells) was not above 100 nM throughout.

`CNC(=O)c1cc(-c2cc(-c3cc(NC(=O)c4ccnc(C(C)(C)F)c4)cc(F)c3F)ccn2)ccn1` [Example 478]: the IC50 in experiment [1] is not above 100 nM; with A375 cells, 1000 to 10000 nM; in experiment [2] it was 100 to 500 nM; in the experiment with WM3928 cells, 100 to 500 nM.

As for `Cc1ccc(NC(=O)c2ccnc(C(C)(F)F)c2)cc1-c1ccnc(-c2ccnc(NC(=O)C3CC3)c2)c1` [Example 459], the IC50 (in experiment [1]; in the experiment with A375 cells; in experiment [2]; in the experiment on WM3928 cells) was not above 100 nM each time.
